Here are results for 16 compounds from ChEMBL document CHEMBL3396945, “Modified calanolides incorporated with furan-2-nitro mimics against Mycobacterium tuberculosis” (2015).

The test system of test [1] is Mycobacterium tuberculosis. The experiment in a line: microbe, parasite or virus in culture. Type of test: functional.
Test [2] has as its system Mycobacterium tuberculosis. The test can be described thus: microbe, parasite or virus in culture. In kind it is functional. This is another data set of the same source.

Converted amounts (≈) assume the structure as drawn.

As to `CCCc1cc(=O)oc2c1c1c(c3oc(C(=O)OCC)cc32)C=CC(C)(C)O1`, the MIC in test [1] and in test [2] was more than 50 µg/mL each time.

As for `CCCc1cc(=O)oc2c1c1c(c3oc(C(=O)O)cc32)C=CC(C)(C)O1`, the MIC in test [1] and in test [2] was more than 50 µg/mL throughout.

As to `CCCc1cc(=O)oc2c1c1c(c3oc(C(=O)NN)cc32)C=CC(C)(C)O1`, the values for the MIC in test [1] and in test [2] were 50 µg/mL (≈ 136 µM) and more than 50 µg/mL, respectively.

On to `CCCc1cc(=O)oc2c1c1c(c3oc(C(=O)NNC(=O)c4ccncc4)cc32)C=CC(C)(C)O1`, for which the MIC in test [1] was 25 µg/mL (≈ 52.8 µM); in test [2] it was more than 50 µg/mL.

For the compound `CCCc1cc(=O)oc2c1c(OCCN1CCOCC1)cc1oc(C(=O)OCC)cc12`, the MIC in test [1] and in test [2] was more than 50 µg/mL in each case.

Regarding `CCCc1cc(=O)oc2c1c(OCCN1CCOCC1)cc1oc(C(=O)O)cc12`, the MIC in test [1] and in test [2] was more than 50 µg/mL each time.

Consider `CCCc1cc(=O)oc2c1c(OCCN1CCOCC1)cc1oc(C(=O)NN)cc12`, for which the MIC in test [1] and in test [2] was more than 50 µg/mL throughout.

Turning to `CCCc1cc(=O)oc2c1c1c(c3oc(NC(=O)OCC)cc32)C=CC(C)(C)O1`, the MIC in test [1] and in test [2] was more than 50 µg/mL throughout.

Take `CCCc1cc(=O)oc2c1c1c(c3oc(C#N)cc32)C=CC(C)(C)O1`: the MIC in test [1] and in test [2] was more than 50 µg/mL each time.

In the case of `CCCc1cc(=O)oc2c1c1c(c3oc(C(=O)N=[N+]=[N-])cc32)C=CC(C)(C)O1`, the MIC in test [1] and in test [2] was more than 50 µg/mL in each case.

Turning to `CCCc1cc(=O)oc2c1c(OCCN1CCOCC1)cc1oc(C#N)cc12`, the MIC in test [1] and in test [2] was more than 50 µg/mL throughout.

For the compound `CCCc1cc(=O)oc2c1c(OCCN1CCOCC1)cc1oc(/C(N)=N\O)cc12`, the MIC in test [1] and in test [2] was more than 50 µg/mL each time.

Consider `CCCc1cc(=O)oc2c1c(OCCN1CCOCC1)cc1oc(C(=N)N)cc12`, for which the MIC in test [1] and in test [2] was more than 50 µg/mL each time.

As to `CCCc1cc(=O)oc2c1c(OCCN1CCOCC1)cc1oc(-c3noc(=O)[nH]3)cc12`, the MIC in test [1] and in test [2] was more than 50 µg/mL each time.

On to `CCCc1cc(=O)oc2c1c(OCCN1CCOCC1)cc1oc(-c3noc(C)n3)cc12`, for which the MIC in test [1] and in test [2] was more than 50 µg/mL throughout.

Consider `CCCc1cc(=O)oc2c1c(OCCN1CCOCC1)cc1oc(-c3noc(C(F)(F)F)n3)cc12`, for which the MIC in test [1] and in test [2] was more than 50 µg/mL throughout.
